Measurements reported in patent publication US20240408064A1, “RAS INHIBITORS, COMPOSITIONS AND METHODS OF USE THEREOF” (GENETOLEAD INC., priority 2021, published 2024).
“Also recorded” adds a separate entry of the source.

Assays:
HRas^G12V [1] = target: T1, HRas^G12V (Homo sapiens (Human), UniProt P01112, G12V); experiment: 19F DLB (ligand-observed 19F NMR) score; type: binding; set-up: scale not given here
Outline: (§1)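 Fragments were pooled at 240 μM each with 50 μM HRas G12V in 25 mM sodium phosphate pH 7.4, 150 mM NaCl, 5 mM MgCl2, 1 mM TCEP-d16, 10% D2O, and screened by 1H-decoupled 1D 19F NMR at 600 MHz (64 scans, 5 s relaxation delay). T2-CPMG data were collected with 1 ms echoes and eight delays from 1 to 800 ms.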

HRas^G12V [2] = target: T1, HRas^G12V; experiment: 19F T2-CPMG NMR score; type: binding
Outline: as §1

HRas^G12V [3] = target: T1, HRas^G12V; experiment: Overall binding/activity in the various assays (NMR consensus binding)
Outline: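 Fragments (240 µM each, pooled) screened against 50 µM HRas^G12V in 25 mM sodium phosphate pH 7.4, 150 mM NaCl, 5 mM MgCl2, 1 mM TCEP-d16 by 1H-decoupled 1D 19F NMR. Hits confirmed by ligand- and protein-observed 1D 1H, STD and T2-CPMG (aggregation check); consensus binding ranked, with 15N HSQC for sites and Kd.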

Row | 19F DLB Score (HRas^G12V [1]) | 19F T2-CPMG Score (HRas^G12V [2]) | Binding to HRas^G12V (in words) (HRas^G12V [3]) | Activity ranking on HRas^G12V (in words) (HRas^G12V [3]) | Structure (SMILES)
1 | 0.93 | 0.11 | low or no binding |  | CC1CN(C(=O)Cc2cc(F)cc3[nH]ccc23)C1 [Compound 10172, 2-(6-fluoro-1H-indol-4-yl)-1-(3-methylazetidin-1-yl) ethan-1-one]
2 | 1.14 | 2.32 | low or no binding |  | CC1CN(C(=O)Cc2c[nH]c3cc(F)cnc23)C1 [Compound 10174, 2-(6-fluoro-1H-pyrrolo[3,2-b]pyridin-3-yl)-1-(3-methylazetidin-1-yl) ethan-1-one]
3 | 1.19 | 2.15 | low or no binding |  | O=C(O)C[C@@H]1CN(C(=O)Cc2c[nH]c3cc(F)ccc23)CCO1 [Compound 10175]
4 | 1.01 | 0.19 | low or no binding |  | CC1CN(C(=O)Cc2cc3cc[nH]c3cc2F)C1 [Compound 10176, 2-(6-fluoro-1H-indol-5-yl)-1-(3-methylazetidin-1-yl) ethan-1-one]
5 | 1.12 | 7.14 | low or no binding |  | CCOC(=O)C[C@H]1CN(C(=O)Cc2c[nH]c3cc(F)ccc23)CCO1 [Compound 10177, Ethyl (S)-2-(4-(2-(6-fluoro-1H-indol-3-yl)acetyl)morpholin-2-yl)acetate]
6 | 1.11 | 2.74 | low or no binding |  | O=C(O)C[C@H]1CN(C(=O)Cc2c[nH]c3cc(F)ccc23)CCO1 [Compound 10178, (S)-2-(4-(2-(6-fluoro-1H-indol-3-yl)acetyl)morpholin-2-yl)acetic acid]
7 | 1.76 | 6.77 | low or no binding |  | COC(=O)Cc1c[nH]c2cc(F)ccc12 [Compound 11001]
8 | 3.43 | 24.24 |  | More active; also recorded: Most active | O=C1CC(c2c[nH]c3cc(F)ccc23)C(=O)N1 (stereo not drawn) [Compound 11006]
9 | 6.41 | 38.4 |  | More active; also recorded: Most active | CN(C)CC(=O)Nc1ccc(NC(=O)Cc2c[nH]c3cc(F)ccc23)cc1 [Compound 11008]
10 | 0.4 | 1.74 | low or no binding |  | CC(C)(C)OC(=O)n1cc(CC#N)c2ccc(F)cc21 [Compound 11013]
11 | 1.44 | 3.32 | low or no binding |  | CN(C)CC(=O)Nc1ccccc1NC(=O)Cc1c[nH]c2cc(F)ccc12 [Compound 11014]
12 | 1.74 | 5.57 | low or no binding |  | CCOC(=O)C(C#N)c1c[nH]c2cc(F)ccc12 (stereo not drawn) [Compound 11016]
13 | 1 | −2.12 | low or no binding |  | O=C(c1ccccc1)N1CCC(c2c[nH]c3cc(F)ccc23)CC1 [Compound 11025]
14 | 2.02 | −1.86 | low or no binding |  | O=C(c1ccc(F)cc1F)N1CCC(c2c[nH]c3cc(F)ccc23)CC1 [Compound 11026]
15 | 1.65 | 3.61 | low or no binding |  | CC1(C)OC(=O)C(C(c2ccccc2F)c2c[nH]c3cc(F)ccc23)C(=O)O1 (stereo not drawn) [Compound 11041]
16 | 1.56 | 5.62 | low or no binding |  | CC1(C)OC(=O)C(C(c2ccccc2F)c2c[nH]c3cc(F)ccc23)C(=O)O1 (stereo not drawn) [Compound 11042]
17 | 3.27 | 20.23 |  | More active | O=C(O)CC(c1ccccc1F)c1c[nH]c2cc(F)ccc12 (stereo not drawn) [Compound 11043]
18 | 0.08 | 1.02 | low or no binding |  | CN(C)CC(=O)Nc1cccc(NC(=O)Cc2c[nH]c3cc(Cl)cc(F)c23)c1 [Compound 11072]
19 | <LLOQ | <LLOQ |  | More active; also recorded: Most active | CN(C)CC(=O)Nc1cccc(NC(=O)Cc2c[nH]c3cc(F)cc(Cl)c23)c1 [Compound 11073]
20 | 3.34 | 37.86 |  | More active | O=C(CN1CCCCC1)c1c[nH]c2cc(F)ccc12 [compound 10076]
21 | 1.51 | 6.28 | low or no binding |  | CC(=O)N1CC[C@H](NC(=O)Cc2c[nH]c3cc(F)ccc23)C1 [compound 10090]
22 | 3 | 2.5 | low or no binding |  | COCCOc1cccc(NC(=O)Cc2c[nH]c3cc(F)ccc23)c1 [compound 10094]
23 | 2.02 | 6.16 | low or no binding |  | CC(=O)N[C@@H]1CCCN(C(=O)Cc2c[nH]c3cc(F)ccc23)C1 [compound 10137]
24 | 1.49 | 8.16 | low or no binding |  | COC[C@@H]1CN(C(=O)Cc2c[nH]c3cc(F)ccc23)CCO1 [compound 10155]
25 | 1.61 | 5.59 | low or no binding |  | CC(=O)NC[C@@H]1CN(C(=O)Cc2c[nH]c3cc(F)ccc23)CCO1 [compound 10164]

Row | Structure (SMILES) | 19F DLB Score (HRas^G12V [1]) | 19F T2-CPMG Score (HRas^G12V [2]) | Binding to HRas^G12V (in words) (HRas^G12V [3]) | Activity ranking on HRas^G12V (in words) (HRas^G12V [3])
26 | CN1CCN(C(=O)Cc2c[nH]c3cc(F)ccc23)C[C@@H]1C(=O)O [Compound 10173] | 1.33 | 3.79 | low or no binding | 
27 | Fc1ccc2c(C3CCNC3)c[nH]c2c1 (stereo not drawn) [Compound 11007] | 1.76 | 6.67 | low or no binding | 
28 | Fc1ccc2c(C3=CCNCC3)c[nH]c2c1 [Compound 11011] | 1.52 | 5.22 | low or no binding | 
29 | CN(C)Cc1c[nH]c2ccc(F)cc12 [FS-1254, reference compound] | 1.15 | 0.74 | low or no binding | 
